ChEMBL document CHEMBL1201862, “PubChem BioAssay data set” (2004)
Calls of active or inactive are those of the source.

Key:
[1] = target: T1, Ubiquitin-conjugating enzyme E2 N (Homo sapiens, UniProt P61088); assay type: functional;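 also: Dose-response confirmation in a TR-FRET assay detecting UBC13-driven polyubiquitin chain formation, inhibition measured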
T1 sequence (P61088 whole entry): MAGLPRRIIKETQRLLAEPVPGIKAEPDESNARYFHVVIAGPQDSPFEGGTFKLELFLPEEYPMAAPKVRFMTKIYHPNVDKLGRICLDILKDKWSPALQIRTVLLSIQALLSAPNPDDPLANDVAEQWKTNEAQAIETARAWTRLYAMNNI

[2] = target: T2, DNA repair protein RAD52 homolog (Homo sapiens, UniProt P43351); assay type: functional, biochemical
T2 sequence (P43351 whole entry): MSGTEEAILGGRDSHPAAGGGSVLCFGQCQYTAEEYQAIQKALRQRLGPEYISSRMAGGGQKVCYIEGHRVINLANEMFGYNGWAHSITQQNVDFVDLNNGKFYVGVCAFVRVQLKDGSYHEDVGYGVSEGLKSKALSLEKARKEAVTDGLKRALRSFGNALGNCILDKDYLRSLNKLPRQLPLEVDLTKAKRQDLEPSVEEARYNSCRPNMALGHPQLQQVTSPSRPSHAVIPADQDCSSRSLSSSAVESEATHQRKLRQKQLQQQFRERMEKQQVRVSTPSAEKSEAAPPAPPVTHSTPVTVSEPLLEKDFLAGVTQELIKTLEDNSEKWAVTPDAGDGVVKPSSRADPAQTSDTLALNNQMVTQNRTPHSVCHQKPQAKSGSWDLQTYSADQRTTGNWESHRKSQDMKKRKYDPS

[3] = target: T3, Leucine aminopeptidase (Plasmodium falciparum 3D7, UniProt Q8IL11); experiment: P. falciparum M17LAP inhibitors, primary screen, biochemical, fluorogenic H-Leu-NHMec substrate, 1536-well (AID 1619); assay type: functional
T3 sequence (Q8IL11 whole entry): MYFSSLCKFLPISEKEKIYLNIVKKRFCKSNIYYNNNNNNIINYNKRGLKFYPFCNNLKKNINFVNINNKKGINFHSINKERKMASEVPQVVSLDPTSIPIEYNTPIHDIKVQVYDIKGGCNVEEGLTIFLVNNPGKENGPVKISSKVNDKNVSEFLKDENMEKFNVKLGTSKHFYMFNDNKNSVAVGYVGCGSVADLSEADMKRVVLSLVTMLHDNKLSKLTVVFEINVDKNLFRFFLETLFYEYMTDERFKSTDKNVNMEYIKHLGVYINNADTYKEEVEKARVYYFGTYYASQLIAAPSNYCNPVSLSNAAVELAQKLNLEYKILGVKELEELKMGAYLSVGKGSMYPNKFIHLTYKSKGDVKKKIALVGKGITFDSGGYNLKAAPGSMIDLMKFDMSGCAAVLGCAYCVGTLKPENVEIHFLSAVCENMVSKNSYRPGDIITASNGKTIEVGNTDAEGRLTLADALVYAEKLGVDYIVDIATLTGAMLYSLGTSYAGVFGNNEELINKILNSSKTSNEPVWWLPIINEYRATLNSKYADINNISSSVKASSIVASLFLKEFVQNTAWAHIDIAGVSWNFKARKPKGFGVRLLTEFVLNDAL

[4] = target: T4, Short transient receptor potential channel 4 (Mus musculus, UniProt Q9QUQ5); experiment: calcium entry via TRPC4 opening agents – cell-based, HEK293 TRPC4/mu-opioid, Fluo-4 calcium, dose response (AID 434937); assay type: functional
T4 sequence (Q9QUQ5 whole entry): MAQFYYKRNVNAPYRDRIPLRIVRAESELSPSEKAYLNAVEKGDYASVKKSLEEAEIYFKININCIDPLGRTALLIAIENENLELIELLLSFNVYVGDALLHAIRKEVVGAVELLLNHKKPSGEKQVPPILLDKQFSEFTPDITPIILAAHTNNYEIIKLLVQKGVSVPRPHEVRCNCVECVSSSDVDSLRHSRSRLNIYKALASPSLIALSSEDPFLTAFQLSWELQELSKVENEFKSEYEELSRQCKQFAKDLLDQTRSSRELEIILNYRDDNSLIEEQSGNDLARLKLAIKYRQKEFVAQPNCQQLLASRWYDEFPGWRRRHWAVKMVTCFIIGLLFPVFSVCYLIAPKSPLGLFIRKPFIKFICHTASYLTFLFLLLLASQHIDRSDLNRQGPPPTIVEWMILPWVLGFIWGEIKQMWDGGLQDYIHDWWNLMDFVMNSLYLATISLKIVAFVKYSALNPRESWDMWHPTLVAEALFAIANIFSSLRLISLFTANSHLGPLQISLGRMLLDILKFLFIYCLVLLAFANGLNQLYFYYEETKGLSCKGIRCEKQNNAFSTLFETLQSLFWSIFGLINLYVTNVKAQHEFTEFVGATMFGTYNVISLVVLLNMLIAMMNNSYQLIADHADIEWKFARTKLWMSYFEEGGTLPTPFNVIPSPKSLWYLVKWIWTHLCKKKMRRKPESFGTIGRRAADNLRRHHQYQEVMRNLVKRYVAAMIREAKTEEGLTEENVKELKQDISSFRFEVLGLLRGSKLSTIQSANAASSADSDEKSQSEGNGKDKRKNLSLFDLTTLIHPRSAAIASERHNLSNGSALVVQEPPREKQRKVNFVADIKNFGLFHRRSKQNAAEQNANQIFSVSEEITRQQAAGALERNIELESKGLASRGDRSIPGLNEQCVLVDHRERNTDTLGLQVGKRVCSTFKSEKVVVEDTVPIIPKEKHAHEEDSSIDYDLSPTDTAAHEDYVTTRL

[5] = target: T4, Short transient receptor potential channel 4; experiment: block of DAMGO-driven TRPC4 calcium entry – cell-based, HEK293 TRPC4/mu-opioid, Fluo-4 calcium, dose response (AID 434942); assay type: functional;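 also: potency of inhibitors blocking the TRPC4 calcium response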
[6] = target: T5, Corticotropin-releasing factor receptor 2/Corticotropin-releasing factor-binding protein (Homo sapiens, UniProt P24387+Q13324); experiment: activators of CRF receptor 2 with binding protein – uHTS hits, confirmation (AID 602473); assay type: functional; details: read-out: EC50_Mean
T5 sequence (Q13324 whole entry): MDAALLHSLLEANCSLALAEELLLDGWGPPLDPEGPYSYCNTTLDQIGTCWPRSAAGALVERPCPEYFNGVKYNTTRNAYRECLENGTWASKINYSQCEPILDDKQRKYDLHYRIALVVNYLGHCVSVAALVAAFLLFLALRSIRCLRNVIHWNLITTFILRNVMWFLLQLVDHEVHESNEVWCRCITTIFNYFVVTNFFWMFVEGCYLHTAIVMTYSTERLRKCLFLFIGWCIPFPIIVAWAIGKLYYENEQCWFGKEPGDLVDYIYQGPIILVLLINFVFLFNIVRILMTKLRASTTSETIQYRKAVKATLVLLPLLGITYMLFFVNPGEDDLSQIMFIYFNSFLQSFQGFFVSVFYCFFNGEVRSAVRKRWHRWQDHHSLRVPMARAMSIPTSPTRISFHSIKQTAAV
T5 sequence (P24387 whole entry): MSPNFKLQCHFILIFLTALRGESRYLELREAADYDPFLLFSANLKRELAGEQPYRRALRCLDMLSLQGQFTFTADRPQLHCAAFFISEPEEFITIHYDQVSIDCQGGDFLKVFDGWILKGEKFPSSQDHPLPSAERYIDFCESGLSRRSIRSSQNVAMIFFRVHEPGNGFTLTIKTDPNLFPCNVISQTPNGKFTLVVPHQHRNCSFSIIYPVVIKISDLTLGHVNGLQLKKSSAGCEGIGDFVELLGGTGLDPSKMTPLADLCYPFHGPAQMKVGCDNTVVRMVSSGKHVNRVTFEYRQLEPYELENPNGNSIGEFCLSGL

[7] = cells; assay type: functional, cell-based
[8] = cells; assay type: functional, cell-based; remark: listed apart in the source
[9] = target: Paired box protein Pax-8 (Homo sapiens, UniProt Q06710); experiment: PAX8 transcriptional activity inhibition in RMG-I – RMG-I cells, luciferase, cherry-pick, dose response (AID 687027); assay type: functional, cell-based;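 also: luciferase reporter driven by Pax8 target thyroperoxidase promoter measured by SteadyGlo luminescence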
[10] = OVCAR8 cell viability loss – plate reader, dry powder samples, PAX8 project, dose response (AID 743197); assay type: functional, cell-based; details: OVCAR-8
[11] = OVCAR-3 cell viability loss – plate reader, dry powder samples, PAX8 inhibitor project, dose response (AID 743044); assay type: functional, cell-based
[12] = target: T6, Caspase-6 (Homo sapiens, UniProt P55212); experiment: inhibition of CASP6 peptide cleavage – biochemical, VEID-R110 fluorescence, cherry-pick, dose response (AID 720632)
T6 sequence (P55212 whole entry): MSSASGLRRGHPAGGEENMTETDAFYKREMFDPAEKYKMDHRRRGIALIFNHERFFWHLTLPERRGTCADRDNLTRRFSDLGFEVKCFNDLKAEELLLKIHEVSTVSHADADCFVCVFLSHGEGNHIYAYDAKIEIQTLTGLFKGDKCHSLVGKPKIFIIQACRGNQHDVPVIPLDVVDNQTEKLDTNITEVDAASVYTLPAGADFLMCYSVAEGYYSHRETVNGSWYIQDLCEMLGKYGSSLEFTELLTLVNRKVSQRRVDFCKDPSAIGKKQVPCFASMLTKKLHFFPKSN

[13] = luciferase reporter signal suppression in cells – H4 neuroglioma cells, luminescence, dose response (AID 1990); assay type: functional, cell-based
[14] = tested on: Streptococcus sp. 'group A'; experiment: Streptococcus pyogenes SK(-)GAS viability under kanamycin – luminescence, BacTiterGlo, confirmation, counter-screen for streptokinase expression inhibitor project, dose response (AID 1900); assay type: functional, organism-based
[15] = tested on: BJ; experiment: BJ-TERT fibroblast viability loss – cell-based, RAS-independent, luminescence, dose response (AID 1933); assay type: functional; details: Homo sapiens
[16] = Luminescence Cell-Based Dose Response HTS to Identify Inhibitors of 5'UTR Stem-Loop Driven Prion Protein mRNA Translation in H4 Neuroglioblastoma Cells. [Related pubchem assays: 1827 (Project Summary), 1813 (Primary HTS)]; assay type: functional
[17] = alpha-synuclein stem-loop luciferase translation blockers – H4 neuroglioma cells, luminescence, confirmation (AID 1988); assay type: functional, cell-based
[18] = tested on: BJ; experiment: cells; assay type: functional, cell-based; details: Homo sapiens
[19] = tested on: BJ; experiment: BJ-TERT-LT-ST fibroblast viability loss – cell-based, RAS-independent, luminescence, dose response (AID 1935); assay type: functional; details: Homo sapiens;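 also: BJ fibroblasts immortalized with TERT plus LT and ST oncogenes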
[20] = DRD fibroblast viability loss – cell-based, non-viral oncogenic, luminescence, dose response (AID 1934); assay type: functional; details: Homo sapiens
[21] = tested on: Streptococcus; experiment: GAS UMAA2166 growth inhibition – luminescence, BacTiterGlo, counter-screen for streptokinase expression inhibitor project, dose response (AID 1915); assay type: functional, organism-based;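 also: potency for reduction of bacterial viability or growth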
[22] = target: Nonstructural protein 1 (Influenza A virus, UniProt Q194T2); assay type: functional, Influenza A virus (A/California/07/2009(H1N1))
[23] = tested on: INS1; experiment: INS-1E survival protection against cytokine death – cell-based, luminescence, retest, dose response (AID 449756); assay type: functional; details: Rattus norvegicus;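 also: cell death triggered by IL-1 beta plus TNF-alpha plus IFN-gamma mixture; protective hits raise ATP signal compared with cytokine alone wells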

Chain of Paired box protein Pax-8 (Q06710 whole entry): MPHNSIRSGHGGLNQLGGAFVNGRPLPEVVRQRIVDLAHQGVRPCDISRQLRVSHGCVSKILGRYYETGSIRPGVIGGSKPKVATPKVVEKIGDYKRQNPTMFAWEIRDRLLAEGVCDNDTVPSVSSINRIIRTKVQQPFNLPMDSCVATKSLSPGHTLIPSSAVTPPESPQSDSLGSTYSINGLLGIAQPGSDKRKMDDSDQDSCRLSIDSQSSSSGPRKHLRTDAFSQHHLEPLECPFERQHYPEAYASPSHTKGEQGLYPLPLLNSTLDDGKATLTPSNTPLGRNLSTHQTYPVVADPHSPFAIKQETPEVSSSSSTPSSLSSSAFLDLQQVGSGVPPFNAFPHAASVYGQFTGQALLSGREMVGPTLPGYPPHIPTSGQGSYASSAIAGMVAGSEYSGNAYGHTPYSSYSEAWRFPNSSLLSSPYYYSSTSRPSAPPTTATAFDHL
Chain of Nonstructural protein 1 (Q194T2 whole entry): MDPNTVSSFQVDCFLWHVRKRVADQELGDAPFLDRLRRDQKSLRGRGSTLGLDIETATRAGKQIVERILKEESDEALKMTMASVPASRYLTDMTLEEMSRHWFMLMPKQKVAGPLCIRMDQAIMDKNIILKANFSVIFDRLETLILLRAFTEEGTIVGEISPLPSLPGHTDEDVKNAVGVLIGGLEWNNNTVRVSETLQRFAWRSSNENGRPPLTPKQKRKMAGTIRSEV

Cc1cccc(-c2nc3ccc(C(=O)NCCN4CCN(C)CC4)cc3nc2-c2cccc(C)c2)c1
IC50 [1]: > 20 µM (inactive)
AC50 [2]: 9.79 µM (active)

CCOc1ccc(NC(=O)CN2C(=O)C3CC=CCC3C2=O)cc1 (stereo unspecified)
IC50 [3]: 3.86 µM (active)

COc1cc(C(=O)NC(=S)NNC(=O)[C@H]2C[C@@H]2c2ccccc2)cc(OC)c1OC
EC50 [4]: 3.76 µM (active)

COc1ccc(CNCCc2ccc3c(c2)OCO3)cc1Br
EC50 [4]: 3.76 µM (active)

CCOc1ccccc1N(CC(=O)N1CCOCC1)S(=O)(=O)c1ccccc1
EC50 [5]: 6.68 µM (active)
EC50 [4]: 5.31 µM (active)
EC50 [6]: 8.04 µM (active)

O=C(NCC(c1cccs1)N1CCOCC1)c1ccc(Cl)c([N+](=O)[O-])c1 (stereo unspecified)
EC50 [4]: 5.31 µM (active)

Cc1cc(C)c(C#N)c(SCC(O)CS(=O)(=O)Cc2ccccc2)n1 (stereo unspecified)
IC50 [3]: 31.5 µM (active)

O=C(NC(Cc1ccc2c(c1)OCO2)C(=O)NC(Cc1ccccc1)C(=O)O)c1ccccc1 (stereo unspecified)
IC50 [3]: 19.7 µM (active)

CCCCN(C)CCCNC(=O)CN1N=C(c2ccc(Cl)cc2)CCC1=O
EC50 [4]: 0.596 µM (active)

CCCn1c(O)cc(=O)nc1SCC(=O)N1CCc2ccccc2C1
IC50 [7]: > 29.9 µM (inactive)
EC50 [8]: > 29.9 µM (inactive)

COc1cccc(S(=O)(=O)Nc2ccc3c(c2)[C@H]2C[C@H](CC(=O)NCc4ccccc4F)O[C@H](CO)[C@H]2O3)c1
AC50 [9]: 16.1 µM (active)
AC50 [10]: > 70 µM (inactive)

C[C@H]1CCCCO[C@H](CN(C)Cc2ccc(C(F)(F)F)cc2)[C@@H](C)CN([C@@H](C)CO)C(=O)c2cc(NS(=O)(=O)c3ccc(F)cc3)ccc2O1
AC50 [9]: 9.73 µM (active)
AC50 [11]: 44.9 µM (active)
AC50 [10]: 43.6 µM (active)

CSc1ccc(CN2CCC(C)(Oc3cnc(Cl)c4ccccc34)C2)cc1 (stereo unspecified)
AC50 [12]: 46 µM (active)

C[C@H](CO)N1C[C@H](C)[C@H](CN(C)CC2CCCCC2)Oc2ccc(NS(=O)(=O)c3ccc(Cl)cc3)cc2CC1=O
AC50 [9]: 7.77 µM (active)
AC50 [11]: 58.6 µM (active)

C[C@@H]1CCCCO[C@@H](CN(C)S(=O)(=O)c2cccs2)[C@H](C)CN([C@H](C)CO)C(=O)c2cc(NC(=O)Nc3ccc(C(F)(F)F)cc3)ccc2O1
AC50 [9]: 3.17 µM (active)
AC50 [10]: > 70 µM (inactive)

Cc1[nH]n(-c2ccccc2)c(=O)c1N=Nc1c(O)cc(S(=O)(=O)N(C)C)c2ccccc12
EC50 [13]: 3.37 µM (active)
EC50 [14]: 2.21 µM (active)
EC50 [15]: 7.94 µM (active)
EC50 [16]: 6.77 µM (active)
EC50 [17]: 2.12 µM (active)
EC50 [18]: 10.3 µM (active)
EC50 [19]: 10.1 µM (active)
EC50 [20]: 7.77 µM (active)
EC50 [21]: 6.64 µM (active)
IC50 [22]: 19.8 µM (active)
AC50 [23]: 949 nM (active)

C/C(CC1CC(C)(C)OC1=O)=N/Nc1nc(-c2ccccc2)cs1 (stereo unspecified)
IC50 [3]: 52.8 µM (active)
